# From patent US20230078089A1, “Regulating Activation of Fibroblasts to Prevent Fibrosis” (THE J. DAVID GLADSTONE INSTITUTES, A TESTAMENTARY TRUST …, priority 2020, published 2023)
# Assays:
# [1] = tested on: isolated adult CMs; test: bulk RNA-Seq of isolated adult cardiomyocytes from TAC mice; assay type: in vivo, mouse
# Protocol: Cell isolation from mouse hearts was performed as described by Li et al. (J. Vis. Exp. (2014)) with modifications. Briefly, after proper anesthesia level was reached, thoracotomy was performed, and mouse heart was isolated. The isolated heart was cannulated and perfused with perfusion buffer (120.4 mM NaCl, 14.7 mM KCl, 0.6 mM KH2PO4, 0.6 mM Na2HPO4, 1.2 mM MgSO4, 10 mM Na-HEPES, 4.6 mM NaHCO3, 30 mM taurine, 10 mM 2,3-butanedione monoxime, and 5.5 mM glucose, pH 7.0) in a Langendorff perfusion system (Radnoti 120108EZ) for 5-10 minutes at 37° C. The cannulated heart was then digested by digestion buffer (perfusion buffer with 300 units/mL collagenase II (Worthington Biochemical) and 50 μM CaCl2)) for about 10 min at 37° C. […] 30 k cells were counted with trypan blue using a hemocytometer and then used for subsequent 10× Genomics Chromium single cell RNAseq preparation. […] Nuclei were then counted with DAPI using a hemocytometer and finally 30 k non-CM nuclei used for subsequent 10× Genomics Chromium single cell ATACseq preparation. […]
# Total RNA from CMs was extracted using miRNeasy kit (Qiagen) according to the manufacturer's instructions and quantified with Nanodrop (Thermo scientific). […] Reads were mapped to the mm10 reference mouse genome using STAR (v 2.7.3a) and assigned to Ensembl genes. […]
# [2] = tested on: non-CM compartment of mouse hearts; test: single cell RNA sequencing of non-CM heart cells from TAC mice; assay type: in vivo
# Protocol: (§1) Cell isolation from mouse hearts was performed as described by Li et al. (J. Vis. Exp. (2014)) with modifications. Briefly, after proper anesthesia level was reached, thoracotomy was performed, and mouse heart was isolated. The isolated heart was cannulated and perfused with perfusion buffer (120.4 mM NaCl, 14.7 mM KCl, 0.6 mM KH2PO4, 0.6 mM Na2HPO4, 1.2 mM MgSO4, 10 mM Na-HEPES, 4.6 mM NaHCO3, 30 mM taurine, 10 mM 2,3-butanedione monoxime, and 5.5 mM glucose, pH 7.0) in a Langendorff perfusion system (Radnoti 120108EZ) for 5-10 minutes at 37° C. The cannulated heart was then digested by digestion buffer (perfusion buffer with 300 units/mL collagenase II (Worthington Biochemical) and 50 μM CaCl2)) for about 10 min at 37° C. At the end of digestion, the atria and great vessels were removed, and the ventricular tissue was transferred to and gently teased into small pieces in stop buffer (perfusion buffer with 10% fetal bovine serum) at 37° C. After gently pipetting, cell suspension was passed through a 250 uM strainer in a falcon tube and then at 30×g for 3 minutes at room temperature (RT). Then, the supernatant—containing most of the non-cardiomyocytes (CMs)—was divided from the pellet (containing the CM fraction). The non-CM fraction was centrifuged again at 30×g for 3 minutes at RT and the supernatant kept. The supernatant was then filtered with a cell strainer (70 um) and finally centrifuged at 400×g for 3 minutes at RT for eliminating debris. The non-CM pellet was finally resuspended in 1 mL cold PBS 0.5% BSA. 30 k cells were counted with trypan blue using a hemocytometer and then used for subsequent 10× Genomics Chromium single cell RNAseq preparation. For single cell ATAC, 500 k isolated and purified non-CMs were resuspended in […] lysis buffer (Tris-HCl 10 mM pH 7.4, NaCl 10 mM, MgCl2 3 mM, Tween-20 0.1%, P40 0.1%, Digitonin 0.01%, BSA 1% in Nuclease-free water), pipetted 10 times and kept on ice for 5 minutes. Nuclei were then washed 1 mL 1× PBS with 1% BSA and then […] at 4° C. The nuclei pellet was resuspended in 1 mL 1× PBS with 1% BSA and filtered with a 10 uM strainer (pluriSelect #43-50010-00). Nuclei were then counted with DAPI using a hemocytometer and finally 30 k non-CM nuclei used for subsequent 10× Genomics Chromium single cell ATACseq preparation. The CM-fraction was, after the first centrifugation, centrifugated again at 30×g for 3 minutes at RT in stopping buffer and the supernatant was discarded. The CM pellet was finally centrifuged at 400×g for 3 minutes in stopping buffer at RT and after discarding the supernatant, the cell pellet was lysed in Qiazol (miRNeasy kit—Qiagen) for subsequent RNA extraction.
# Single-cell droplet libraries from the non-CM cell suspension (2× Sham, 2× TAC-Veh, 2× TAC-JQ1 and 2× TAC-JQ1 withdrawn) (FIG. 2C) were generated in the 10× Genomics Chromium controller according to the manufacturer's instructions in the Chromium Single Cell 3′ Reagent Kit v.2 User Guide. Additional components used for library preparation include the Chromium Single Cell 3′ Library and Gel Bead Kit v.2 (PN-120237) and the Chromium Single Cell 3′ Chip kit v.2 (PN-120236). Libraries were prepared according to the manufacturer's instructions using the Chromium Single Cell 3′ Library and Gel Bead Kit v.2(PN-120237) and Chromium 7 Multiplex Kit (PN-120262). Final libraries were sequenced on the NextSeq 500 (Illumina) for a quality control run and then on the NovaSeq (Illumina) for deeper sequencing. All the 8 samples were pooled and sequenced in one single lane. Sequencing parameters were selected according to the Chromium Single Cell v.2 specifications. All libraries were sequenced to a mean read depth of at least 50,000 total aligned reads per cell. Raw sequencing reads were processed using the Cell Ranger v.2.2.0 pipeline from 10× Genomics. […]
# [3] = tested on: distal elements (incl. Meox1 enhancer) in fibroblasts, myeloid and endothelial cells; test: single cell ATAC sequencing of non-CM heart nuclei from TAC mice, chromatin accessibility of distal elements; assay type: in vivo, mouse
# Protocol: as §1
# After successful nuclei isolation, nuclei were then processed according to the 10× Genomics Single Cell ATAC kit v1.0 (PN-1000110) by first incubating with Tn5 Transposase for 1 hour, followed by GEM generation and barcode amplification using the 10× Genomics Chromium controller according to the manufacturer's instructions. Additional components used for library preparation include the Chromium Chip E Single Cell ATAC kit (PN-1000082) and Chromium i7 Multiplex Kit N, Set A primers (PN-1000084). Final libraries were sequenced on the NextSeq 500 (Illumina) for a quality control run and then on the NovaSeq (Illumina) for deeper sequencing. All the 8 samples (2× Sham, 2× TAC-Veh, 2× TAC-JQ1 and 2× TAC-JQ1 withdrawn) (FIG. 2C) were pooled and sequenced in one NovaSeq single lane. Sequencing parameters were selected according to the Chromium Single Cell ATAC v1.0 specifications. All libraries were sequenced to a median read depth of at least 2,500 fragments/nuclei. Raw sequencing reads were processed using the Cell Ranger ATAC v1.0 pipeline from 10× Genomics. In brief, reads were demultiplexed and aligned to the mouse mm10 genome. As a test of sample quality, a minimum of 70% of fragments overlapped targeted regions as defined by CellRanger. […]
# [4] = tested on: Meox1 expression; test: Meox1 expression by qPCR in TGF-β-treated cultured cardiac fibroblasts; assay type: cell-based, mouse; conditions: TGF-β1 10 ng/ml, JQ1 500 nM
# Protocol: JQ1 was synthesized and purified in the laboratory of Jun Qi (Dana-Farber Cancer Institute), as described by Filippakopoulos et al. (Nature 468, 1067-1073 (2010)). For in vivo experiments, a stock solution [50 mg/ml JQ1 in dimethyl sulfoxide (DMSO)] was diluted to a working concentration of 5 mg/ml in an aqueous carrier (10% hydroxypropyl b-cyclodextrin; Sigma C0926) using vigorous vortexing. Mice were injected at a dose of 50 mg/kg given intraperitoneally once daily. Vehicle control was an equal amount of DMSO dissolved in 10% hydroxypropyl b-cyclodextrin carrier solution. All solutions were prepared and administered using sterile technique. For in vitro experiments, JQ1 was dissolved in DMSO and administered to cells at 500 nM final concentration using an equal volume of DMSO as control.
# A Tcf21MCM mouse (Acharya et al., Genesis 49, 870-877 (2011)) was crossed with a Rosa26-Ai6 mouse (Jackson Laboratory stock #007906) to generate a Tcf21^MCM/+; Rosa26^Ai6/+ mouse. At 10 weeks of age, intraperitoneal injection of Tamoxifen (75 mg tamoxifen/kg) was done for 5 days (once a day). […] As primary cells only undergo a pre-determined and finite number of cell divisions in culture, and then enter a state of replicative senescence, the inventors employed a widely used method for immortalizing mammalian cells in culture based on Simian virus 40 (SV40) T antigen expression. […]
# Quantitative RT-PCR. […]
# [5] = tested on: MEOX1 expression in human fibroblasts from lung; test: MEOX1 expression by qPCR in TGFβ-treated human lung fibroblasts; assay type: cell-based; conditions: TGF-β1 10 ng/ml, JQ1 0.5 uM
# Protocol: (§2) Human fibroblasts from lung (ATCC, #CRL-4058), liver (CELL APPLICATIONS INC, #712-05f) and kidney (Cell Biologics, #H-6016) were passaged and grown like the mouse cardiac fibroblasts (see “Generation of cardiac fibroblast immortalized cell line, culture condition and TGFβ stimulation” section for more details”). In brief, human fibroblasts were seeded at 1×10^5/well of 6 well plate at day 1. On day 2, the media was changed to the same basal media with 0.5% FBS. On the day 3, TGF-β1 (Peprotech #100-21C) was added into the media at a concentration of 10 ng/ml. JQ1 was added at a final concentration of 0.5 uM. Cells were collected on day 5 for RT-qPCR and gene expression analysis.
# [6] = tested on: MEOX1 expression in human fibroblasts from liver; test: MEOX1 expression by qPCR in TGFβ-treated human liver fibroblasts; assay type: cell-based; conditions: TGF-β1 10 ng/ml, JQ1 0.5 uM
# Protocol: as §2
# [7] = tested on: MEOX1 expression in human fibroblasts from kidney; test: MEOX1 expression by qPCR in TGFβ-treated human kidney fibroblasts; assay type: cell-based; conditions: TGF-β1 10 ng/ml, JQ1 0.5 uM
# Protocol: as §2
# [8] = tested on: BET family of bromodomain proteins; conditions: background description; cited from earlier work
# [9] = tested on: several rodent models of HF; conditions: background description; cited from earlier work
structure (smiles),measurement,setting,value
Cc1sc2c(c1C)C(c1ccc(Cl)cc1)=NC(CC(=O)OC(C)(C)C)c1nnc(C)n1-2 (centres unmarked) [JQ1],overlap of CM transcriptome effects with transcriptomic signature of whole LV tissue,[1],< 3%
same,effects on the transcriptome of isolated adult CMs,[1]; compared to published signature of whole LV tissue,modest
same,fibroblast cell state (scRNAseq clustering),[2]; TAC JQ1-treated,dramatic reversion of this cell state to one that closely approached the Sham state
same,myofibroblast cell state (Postn marker),[2]; TAC JQ1-treated,shifted the myoFB cell state back toward a Sham-like state
same,Meox1 expression in MyoFBs (scRNAseq) after withdrawal,[2]; TAC JQ1 withdrawn,robust re-induction
same,fibroblast cell state (scRNAseq clustering) after withdrawal,[2]; TAC JQ1 withdrawn,shift of the FB population back to a TAC-like stressed state
same,myofibroblast cell state (Postn marker) after withdrawal,[2]; TAC JQ1 withdrawn,reverts these cells back to myoFBs
same,Meox1 expression in MyoFBs (scRNAseq),"[2]; TAC, BET inhibition with JQ1",abolished
same,transcriptome of endothelial and myeloid compartments,"[2]; TAC, JQ1 exposure",dynamic transcriptomic shifts
same,accessibility of fibroblast regions that opened from Sham to TAC (Cluster 9),[3]; fibroblasts,insensitive
same,sensitivity of the enhancer downstream of Meox1 to stress and JQ1 exposure,"[3]; fibroblasts, but not myeloid and endothelial cells",extremely sensitive
same,accessibility of the 10 peaks of the Meox1 enhancer,"[3]; fibroblasts, JQ1 treatment",closed with JQ1 treatment back to a Sham level
same,increase in chromatin accessibility after TAC in fibroblasts,"[3]; fibroblasts, JQ1 treatment",reversibly attenuated
same,accessibility of dynamic fibroblast distal elements (Cluster 2) after withdrawal,"[3]; fibroblasts, JQ1 withdrawal",robustly re-accessible
same,accessibility of the 10 peaks of the Meox1 enhancer after withdrawal,"[3]; fibroblasts, JQ1 withdrawn",re-opened
same,accessibility of dynamic fibroblast distal elements (Cluster 2),"[3]; fibroblasts, closed in Sham, opened in TAC, JQ1 treatment",closed by JQ1
same,attenuation of chromatin accessibility after TAC in myeloid and endothelial cells,"[3]; myeloid and endothelial cells, JQ1 treatment",less evident
same,TGF-β-induced Meox1 upregulation,[4],suppressed
same,TGFβ-induced MEOX1 expression,[5],suppressed
same,TGFβ-induced MEOX1 expression,[6],suppressed
same,TGFβ-induced MEOX1 expression,[7],suppressed
same,potency as BET bromodomain inhibitor,[8],potent inhibitor
same,prevention and treatment of heart failure,[9],can prevent and treat HF
